Read-outs that look alike come from different tables or passages of the source.

The experiment deals with T1, N-type Ca^2+ Channel (Homo sapiens, UniProt Q00975).
T1 construct: host or cells: IMR-32 cells differentiated with dibutyryl cAMP and bromodeoxyuridine
The experiment in a line: Measurement of N-type Ca2+ channel blocking potencies in IMR-32 cells using the fluorescent Ca2+ indicator Indo-1. The format is cell-based. A digest of the protocol: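 IMR-32 cells were differentiated 7–13 days (1 mM dibutyryl cAMP, 2.5 µM BrdU) and Indo-1-loaded. They were preincubated 10 min at 30 °C with compound and 5 µM nitrendipine in HEPES/Tris pH 7.4 HBSS with 0.5% BSA, then KCl/CaCl2-depolarized. The peak-minus-basal 400/490 nm emission ratio gave IC50 by four-parameter logistic fit.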

Where [1] appears, read: IMR-32 cells, K+ depolarization, 5 μM nitrendipine to block L-type channels, read-out: IMR 32 IC50.
Setting [2] is: IMR-32 cells, 5 μM nitrendipine, Examples 116-140, read-out: IMR 32% of Blockade @.
Setting [3] is: IMR-32 cells, 5 μM nitrendipine.

T1 sequence (Q00975 whole entry): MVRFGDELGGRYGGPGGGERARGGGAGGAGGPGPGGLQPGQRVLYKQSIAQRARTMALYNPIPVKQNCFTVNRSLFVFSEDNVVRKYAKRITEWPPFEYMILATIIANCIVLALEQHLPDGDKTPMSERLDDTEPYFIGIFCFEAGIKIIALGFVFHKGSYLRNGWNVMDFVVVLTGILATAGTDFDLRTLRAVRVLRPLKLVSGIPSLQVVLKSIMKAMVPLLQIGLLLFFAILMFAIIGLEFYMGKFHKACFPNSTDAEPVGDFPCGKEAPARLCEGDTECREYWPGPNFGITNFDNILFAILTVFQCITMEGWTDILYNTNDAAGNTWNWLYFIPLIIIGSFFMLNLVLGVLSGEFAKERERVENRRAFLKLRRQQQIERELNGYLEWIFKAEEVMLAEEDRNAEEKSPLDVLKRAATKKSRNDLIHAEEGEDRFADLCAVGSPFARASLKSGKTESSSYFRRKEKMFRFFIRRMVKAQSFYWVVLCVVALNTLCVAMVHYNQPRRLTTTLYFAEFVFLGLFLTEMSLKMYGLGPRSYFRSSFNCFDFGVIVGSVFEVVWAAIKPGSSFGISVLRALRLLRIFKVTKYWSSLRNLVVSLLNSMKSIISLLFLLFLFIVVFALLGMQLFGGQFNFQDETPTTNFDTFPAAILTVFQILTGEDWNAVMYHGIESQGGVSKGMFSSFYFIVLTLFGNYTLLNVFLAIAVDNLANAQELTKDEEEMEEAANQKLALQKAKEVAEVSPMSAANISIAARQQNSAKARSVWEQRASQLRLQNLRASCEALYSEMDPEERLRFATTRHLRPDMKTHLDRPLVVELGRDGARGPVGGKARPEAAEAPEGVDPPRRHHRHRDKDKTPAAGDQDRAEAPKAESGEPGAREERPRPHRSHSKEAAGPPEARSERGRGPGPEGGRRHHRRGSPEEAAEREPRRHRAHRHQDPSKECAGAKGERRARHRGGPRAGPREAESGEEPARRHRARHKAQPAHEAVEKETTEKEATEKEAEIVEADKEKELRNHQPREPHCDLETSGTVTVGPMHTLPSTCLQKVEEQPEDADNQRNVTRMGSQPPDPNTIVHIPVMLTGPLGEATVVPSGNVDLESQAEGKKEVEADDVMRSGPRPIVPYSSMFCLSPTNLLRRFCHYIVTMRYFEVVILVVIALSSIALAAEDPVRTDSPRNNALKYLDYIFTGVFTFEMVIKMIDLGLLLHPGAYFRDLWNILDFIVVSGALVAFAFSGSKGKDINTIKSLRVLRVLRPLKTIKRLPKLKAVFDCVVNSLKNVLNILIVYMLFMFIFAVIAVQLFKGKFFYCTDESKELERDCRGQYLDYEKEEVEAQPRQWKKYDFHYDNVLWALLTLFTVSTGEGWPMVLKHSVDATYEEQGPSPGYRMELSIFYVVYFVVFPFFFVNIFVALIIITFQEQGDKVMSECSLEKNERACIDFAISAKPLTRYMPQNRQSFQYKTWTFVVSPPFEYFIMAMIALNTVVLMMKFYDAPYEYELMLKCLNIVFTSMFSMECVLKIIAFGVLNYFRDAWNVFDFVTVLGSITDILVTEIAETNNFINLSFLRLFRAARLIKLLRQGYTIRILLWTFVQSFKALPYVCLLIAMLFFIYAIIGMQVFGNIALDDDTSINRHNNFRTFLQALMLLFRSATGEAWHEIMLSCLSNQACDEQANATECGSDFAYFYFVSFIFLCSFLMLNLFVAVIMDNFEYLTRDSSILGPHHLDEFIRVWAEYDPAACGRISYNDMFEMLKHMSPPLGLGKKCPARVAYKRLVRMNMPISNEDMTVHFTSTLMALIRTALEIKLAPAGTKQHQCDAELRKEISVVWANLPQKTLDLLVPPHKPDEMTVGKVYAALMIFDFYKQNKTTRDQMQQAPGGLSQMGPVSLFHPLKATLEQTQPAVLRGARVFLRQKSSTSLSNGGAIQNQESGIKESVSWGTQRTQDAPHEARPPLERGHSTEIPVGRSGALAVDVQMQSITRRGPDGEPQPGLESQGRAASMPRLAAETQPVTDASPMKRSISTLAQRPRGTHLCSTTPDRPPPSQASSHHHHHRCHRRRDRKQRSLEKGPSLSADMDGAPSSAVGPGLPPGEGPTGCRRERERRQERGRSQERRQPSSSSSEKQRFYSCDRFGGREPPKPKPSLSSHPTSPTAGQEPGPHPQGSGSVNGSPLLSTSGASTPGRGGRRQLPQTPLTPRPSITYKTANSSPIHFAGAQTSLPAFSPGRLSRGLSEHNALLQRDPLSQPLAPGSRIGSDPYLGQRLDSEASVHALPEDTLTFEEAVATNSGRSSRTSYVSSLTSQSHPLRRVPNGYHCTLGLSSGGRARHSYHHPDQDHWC
T1 sequence (P54284 whole entry partner): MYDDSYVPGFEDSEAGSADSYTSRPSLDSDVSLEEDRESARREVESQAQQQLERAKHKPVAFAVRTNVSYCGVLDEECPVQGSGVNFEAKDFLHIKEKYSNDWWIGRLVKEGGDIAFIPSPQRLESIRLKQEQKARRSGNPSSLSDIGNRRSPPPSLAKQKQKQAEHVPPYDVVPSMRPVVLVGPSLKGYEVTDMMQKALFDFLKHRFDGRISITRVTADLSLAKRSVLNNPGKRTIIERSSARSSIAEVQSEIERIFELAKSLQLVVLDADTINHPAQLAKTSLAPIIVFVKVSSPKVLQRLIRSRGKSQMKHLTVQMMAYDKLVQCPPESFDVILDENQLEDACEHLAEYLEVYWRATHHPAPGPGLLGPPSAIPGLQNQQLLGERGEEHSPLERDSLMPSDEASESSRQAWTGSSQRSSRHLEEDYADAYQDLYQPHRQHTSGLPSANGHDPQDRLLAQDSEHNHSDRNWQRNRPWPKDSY
T1 sequence (P54289 25-946 partner limits assumed): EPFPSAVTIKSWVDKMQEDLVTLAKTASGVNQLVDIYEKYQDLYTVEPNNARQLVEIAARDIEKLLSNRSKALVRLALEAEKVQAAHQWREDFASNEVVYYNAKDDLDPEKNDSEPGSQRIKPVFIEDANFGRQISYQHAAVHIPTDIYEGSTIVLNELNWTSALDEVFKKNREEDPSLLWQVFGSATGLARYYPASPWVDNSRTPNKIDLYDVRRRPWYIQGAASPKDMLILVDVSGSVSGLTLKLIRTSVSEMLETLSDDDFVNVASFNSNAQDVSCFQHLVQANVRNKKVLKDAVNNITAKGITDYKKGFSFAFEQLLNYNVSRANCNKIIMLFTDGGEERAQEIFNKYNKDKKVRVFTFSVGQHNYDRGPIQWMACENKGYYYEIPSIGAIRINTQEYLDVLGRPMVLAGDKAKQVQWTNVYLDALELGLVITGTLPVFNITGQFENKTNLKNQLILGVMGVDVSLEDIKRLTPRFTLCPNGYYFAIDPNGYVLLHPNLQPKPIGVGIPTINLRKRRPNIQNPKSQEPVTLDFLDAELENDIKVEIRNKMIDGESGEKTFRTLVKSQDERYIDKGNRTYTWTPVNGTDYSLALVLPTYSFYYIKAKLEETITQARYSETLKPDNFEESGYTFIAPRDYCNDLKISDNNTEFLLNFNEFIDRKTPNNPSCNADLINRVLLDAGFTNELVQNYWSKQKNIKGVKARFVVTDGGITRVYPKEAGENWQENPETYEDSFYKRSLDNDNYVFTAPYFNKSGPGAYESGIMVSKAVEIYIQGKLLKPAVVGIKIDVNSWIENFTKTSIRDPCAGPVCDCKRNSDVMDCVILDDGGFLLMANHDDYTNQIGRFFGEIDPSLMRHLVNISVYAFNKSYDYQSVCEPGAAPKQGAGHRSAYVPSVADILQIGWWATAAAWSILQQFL
T1 sequence (P54289 947-1103 partner limits assumed): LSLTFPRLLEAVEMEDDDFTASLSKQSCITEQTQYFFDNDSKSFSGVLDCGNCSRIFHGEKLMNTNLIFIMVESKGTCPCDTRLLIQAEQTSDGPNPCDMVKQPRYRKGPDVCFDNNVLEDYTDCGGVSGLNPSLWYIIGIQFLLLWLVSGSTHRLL

`CC(C)CCN(C)[C@@H](CC(C)C)C(=O)N[C@@H](Cc1ccc(OCc2ccccc2)cc1)C(=O)NCCN1CCCC1` (relative stereo) [Example 64, [S-(R*,R*)]-4-Methyl-2-[methyl-(3-methyl-butyl)-amino]-pentanoic acid [2-(4-benzyloxy-phenyl)-1-(2-pyrrolidin-1-yl-ethylcarbamoyl)-ethyl]-amide]: under setting [1], the IC50 was found to be 2400 nM.

Take `CC(C)C[C@@H](C(=O)N[C@@H](Cc1ccc(OCc2ccccc2)cc1)C(=O)NC(C)CO)N(C)C` (relative stereo) [Example 136, [S-(R*,R*)]-2-Dimethylamino-4-methyl-pentanoic acid [2-(4-benzyloxy-phenyl)-1-(2-aminopropan-1-olcarbamoyl)-ethyl]-amide]: under setting [2], the IC50 was determined as 3600 nM. As for “[S-(R*,R*)]-4-Methyl-2-(tetrahydropyran-4-yl-amino)-pentanoic acid [2-(4-benzyloxy-phenyl)-1-(2-pyrrolidine-1-yl-ethylcarbamoyl]-amide [Example 130]”, the IC50 under setting [2] came out at 6500 nM. `CC(C)C[C@H](NCC1CCCCC1)C(=O)N[C@@H](Cc1ccc(OCc2ccccc2)cc1)C(=O)OC(C)(C)C` (relative stereo) [Example 91, [S-(R*,R*)]-3-(4Benzyloxy-phenyl)-2-[2-(cyclohexylmethyl-amino)-4-methyl-pentanoylamino]-propionic acid tert-butyl ester]: the IC50 under setting [1] is 300 nM. In the case of `CC(C)CCN(C)[C@@H](CC(C)C)C(=O)N[C@@H](Cc1ccc(OCc2ccccc2)cc1)C(=O)NC1CCN(Cc2ccccc2)CC1` (relative stereo) [Example 11, [S-(R*,R*)]-4-Methyl-2-[methyl-(3-methyl-butyl)-amino]-pentanoic acid [2-(4-benzyloxy-phenyl)-1-(1-benzyl-piperidin-4-ylcarbamoyl)-ethyl]-amide], under setting [3], the “IMR 32 % of Blockade @ 1 μM” value is reported as 70% and the “IMR 32 % of Blockade @ 10 μM” value is listed as 89%.

On to `CC(C)CCN(C)[C@@H](CC(C)C)C(=O)N[C@@H](Cc1ccc(OCc2ccccc2)cc1)C(=O)NC(C)(CO)CO` (relative stereo) [Example 62, [S-(R*,R*)]-4-Methyl-2-[methyl-(3-methyl-butyl)-amino]-pentanoic acid [2-(4-benzyloxy-phenyl)-1-(2-hydroxy-1-hydroxymethyl-1-methyl-ethylcarbamoyl)-ethyl]-amide], for which, under setting [1], the IC50 was 1100 nM. As to `CC(C)C[C@@H](C(=O)N[C@@H](Cc1ccc(OCc2ccccc2)cc1)C(=O)N1CCC(O)CC1)N1CCOCC1` (relative stereo) [Example 126, [S-(R*,R*)]4-Methyl-2-morpholin-4-yl-pentanoic acid [2-(4-benzyloxy-phenyl)-1-(4-hydroxypiperidinylcarbamoyl)-ethyl]-amide], the IC50 under setting [2] worked out at 6400 nM.

For `CC(C)C[C@@H](C(=O)N[C@@H](Cc1ccc(OCc2ccccc2)cc1)C(=O)NC(C)(C)C)N(C)C1CCCCC1` (relative stereo) [Example 19, [S-(R*,R*)]-2-(Cyclohexyl-methyl-amino)-4-methyl-pentanoic acid [2-(4-benzyloxy-phenyl)-1-tert-butylcarbamoyl-ethyl]-amide], the IC50 under setting [1] was 200 nM. For the molecule `CC(C)C[C@@H](C(=O)N[C@@H](Cc1ccc(OCc2ccccc2)cc1)C(=O)NC1CCN(Cc2ccccc2)CC1)N(C)C1CCCCC1` (relative stereo) [Example 23, [S-(R*,R*)]-2-(Cyclohexyl-methyl-amino)-4-methyl-pentanoic acid [2-(4-benzyloxy-phenyl)-1-(1-benzyl-piperidin-4-ylcarbamoyl)-ethyl]-amide], the “IMR 32 % of Blockade @ 1 μM” value under setting [3] was found to be 53%. The “IMR 32 % of Blockade @ 3 μM” value (3 μM, IMR-32 cells, 5 μM nitrendipine) worked out at 80%. Turning to `CC(C)C[C@@H](C(=O)N[C@@H](Cc1ccc(OCc2ccccc2)cc1)C(=O)N1CCN(Cc2ccccc2)CC1)N(C)C1CCCCC1` (relative stereo) [Example 22, [S-(R*,R*)]-2-(Cyclohexyl-methyl-amino)-4-methyl-pentanoic acid [1-(4-benzyloxy-benzyl)-2-(4-benzyl-piperazin-1-yl)-2-oxo-ethyl]-amide], under setting [3], the “IMR 32 % of Blockade @ 1 μM” value came to 57% and the “IMR 32 % of Blockade @ 10 μM” value came out at 87%.

As to `CC(C)C[C@@H](C(=O)N[C@@H](Cc1ccc(OCc2ccccc2)cc1)C(=O)NCCN1CCCCC1)N(C)CC1CCCCC1` (relative stereo) [Example 27, [S-(R*,R*)]-2-(Cyclohexylmethyl-methyl-amino)-4-methyl-pentanoic acid [2-(4-benzyloxy-phenyl)-1-(2-piperidin-1-yl-ethylcarbamoyl)-ethyl]-amide], under setting [1], the IC50 came to 1300 nM. As to “[S-(R*,R*)]-3-Methyl-2-[methyl-(3-methyl-butyl)-amino]-pentanoic acid [2-(4-benzyloxy-phenyl)-1-tert-butylcarbamoyl-ethyl]-amide [Example 44]”, the “IMR 32 % of Blockade @ 0.3 μM” value is on record as 35% and the “IMR 32 % of Blockade @ 3 μM” value is 74%. In the case of `CN[C@@H](CC(C)C)C(=O)N[C@@H](Cc1ccc(OCc2ccccc2)cc1)C(=O)N1CCN(Cc2ccccc2)CC1` (relative stereo) [Example 43, [S-(R*,R*)]-4-Methyl-2-methylamino-pentanoic acid [1-(4-benzyloxy-benzyl)-2-(4-benzyl-piperazin-1-yl)-2-oxo-ethyl]-amide], under setting [3], the “IMR 32 % of Blockade @ 1 μM” value was found to be 51% and the “IMR 32 % of Blockade @ 10 μM” value turned out to be 96%. With `CC(C)C[C@@H](C(=O)N[C@@H](Cc1ccc(OCc2ccccc2)cc1)C(=O)NCCN1CCCC1)N(C)C` (relative stereo) [Example 139, [S-(R*,R*)]-2-Dimethylamino-4-methyl-pentanoic acid [2-(4-benzyloxy-phenyl)-1-(2-pyrrolidin-1-yl-ethylcarbamoyl)-ethyl]-amide], the IC50 under setting [2] was found to be 38800 nM. Regarding `CCC(COC)NC(=O)[C@H](Cc1ccc(OCc2ccccc2)cc1)NC(=O)[C@H](CC(C)C)N(C)CCC(C)C` (relative stereo) [Example 63, [S-(R*,R*)]-4-Methyl-2-[methyl-(3-methyl-butyl)-amino]-pentanoic acid [2-(4-benzyloxy-phenyl)-1-(1-methoxymethyl-propylcarbamoyl)-ethyl]-amide], under setting [1], the IC50 was 800 nM. As to `CC(C)C[C@H](N[C@@H]1C=CCCC1)C(=O)NC(Cc1ccc(OCc2ccccc2)cc1)C(=O)NC(C)(C)C` (relative stereo) [Example 49, [S-(R*,R*)]-2-(Cyclohex-2-enylamino)-4-methyl-pentanoic acid [2-(4-benzyloxy-phenyl)-1-tert-butylcarbamoyl-ethyl]-amide], the IC50 under setting [1] was 660 nM. As for `CC(C)C[C@@H](C(=O)N[C@@H](Cc1ccc(OCc2ccccc2)cc1)C(=O)N1CCSCC1)N(C)C` (relative stereo) [Example 135, [S-(R*,R*)]-2-Dimethylamino-4-methyl-pentanoic acid [2-(4-benzyloxy-phenyl)-1-(thiomorpholinecarbamoyl)-ethyl]-amide], the IC50 under setting [2] was 1400 nM. As for `CC(C)C[C@@H](C(=O)N[C@@H](Cc1ccc(OCc2ccccc2)cc1)C(=O)N1CCN(Cc2ccccc2)CC1)N(C)C` (relative stereo) [Example 4, [S-(R*,R*)]-2-Dimethylamino-4-methyl-pentanoic acid [1-(4-benzyloxy-benzyl)-2-(4-benzyl-piperazin-1-yl)-2-oxo-ethyl]-amide], under setting [3], the “IMR 32 % of Blockade @ 1 μM” value is given as 50% and the “IMR 32 % of Blockade @ 10 μM” value is 94%. Regarding `CC(C)CCN(C)C(CC(C)C)C(=O)NC(Cc1ccc(OCc2ccccc2)cc1)C(=O)N1CCN(Cc2ccccc2)CC1` (stereo not drawn) [Example 10, [S-(R*,R*)]4-Methyl-2-[methyl-(3-methyl-butyl)-amino]-pentanoic acid [1-(4-benzyloxy-benzyl)-2-(4-benzyl-piperazin-1-yl)-2-oxo-ethyl]-amide], under setting [3], the “IMR 32 % of Blockade @ 1 μM” value is listed as 61% and the “IMR 32 % of Blockade @ 10 μM” value was 80%. In the case of `CC(C)CCN(C)[C@@H](CC(C)C)C(=O)N[C@@H](Cc1ccc(OCc2ccccc2)cc1)C(=O)NCCN1CCCCC1` (relative stereo) [Example 117, [S-(R*,R*)]-4-Methyl-2-[methyl-(3-methylbutyl)-amino]-pentanoic acid [2-(4-benzyloxy-phenyl)-1-(2-piperidin-1-yl-ethylcarbamoyl)-ethyl]-amide], the IC50 under setting [2] was found to be 640 nM.

Regarding `CC(C)C[C@@H](C(=O)N[C@@H](Cc1ccc(OCc2ccccc2)cc1)C(=O)NC(C)(C)C)N(C)Cc1ccc(N(C)C)cc1` (relative stereo) [Example 40, [S-(R*,R*)]-2-[(4-Dimethylamino-benzyl)-methyl-amino]-4-methyl-pentanoic acid [2-(4-benzyloxy-phenyl)-1-tert-butylcarbamoyl-ethyl]-amide], the IC50 (read-out: IMR 32 IC50) came out at 280 nM. As for `CC(C)C[C@H](NC1CCOCC1)C(=O)N[C@@H](Cc1ccc(OCc2ccccc2)cc1)C(=O)NC1CCN(Cc2ccccc2)C1` (relative stereo) [Example 76, [S-(R*,R*)]-4-Methyl-2-(tetrahydro-pyran4-ylamino)-pentanoic acid [2-(4-benzyloxy-phenyl)-1-(1-benzyl-pyrrolidin-3-ylcarbamoyl)-ethyl]-amide], the IC50 under setting [1] is 600 nM. `CC(C)CCN(C)C(CC(C)C)C(=O)NC(Cc1ccc(OCc2ccccc2)cc1)C(=O)NCCNCCO` (stereo not drawn) [Example 66, [S-(R*,R*)]-4-Methyl-2-[methyl-(3-methyl-butyl)-amino]-pentanoic acid {2-(4-benzyloxy-phenyl)-1-[2-(2-hydroxy-ethylamino)-ethylcarbamoyl]-ethyl}-amide]: the IC50 under setting [1] came out at 1900 nM.

The record behind these values is patent US6117841A, “Substituted peptidylamine calcium channel blockers” (Warner-Lambert Company, priority 1999, dated 2000).
